What follows are molecules tested against skeletal myofibrils (myosin ATPase activity) (assay: Skeletal Myofibril ATPase Assay). Settings: PK-LDH coupled, absorbance at 340 nm.
Assay type: biochemical
Method in brief: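 Skeletal myofibril ATPase measured by PK-LDH-coupled NADH depletion at 340 nm, read every 1.5–2 min for 1 h; pCa buffer with PIPES/CaCl2/EGTA, pH 7.0. Rate taken as max–min absorbance, normalised to 1% DMSO vehicle (100%) and no change (0%); IC50 from four-parameter fit, bottom ≥0.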

Structure (SMILES)	IC50 [µM]
O=c1ccc(-c2ccc(OC(F)F)cc2)nn1Cc1nnc(-c2ccccc2)o1 [Compound 212, 6-(4-(difluoromethoxy)phenyl)-2-((5-phenyl-1,3,4-oxadiazol-2-yl)methyl)pyridazin-3(2H)-one]	10 to 100
CCc1noc(Cn2nc(-c3ccc(OC(F)F)cc3)ccc2=O)n1 [Compound 213, 6-(4-(difluoromethoxy)phenyl)-2-((3-ethyl-1,2,4-oxadiazol-5-yl)methyl)pyridazin-3(2H)-one]	10 to 100
O=c1ccc(-c2ccc(OC(F)F)cc2)nn1Cc1nc(C2CC2)co1 [Compound 214, 2-((4-cyclopropyloxazol-2-yl)methyl)-6-(4-(difluoromethoxy)phenyl)-pyridazin-3(2H)-one]	10 to 100
O=c1ccc(-c2ccc(OC(F)F)cc2)nn1Cc1nnc(C(F)(F)F)o1 [Compound 215, 6-(4-(difluoromethoxy)phenyl)-2-((5-(trifluoromethyl)-1,3,4-oxadiazol-2-yl)methyl)pyridazin-3(2H)-one]	10 to 100
Cc1noc(Cn2nc(-c3ccc(OC(F)F)cc3)ccc2=O)n1 [Compound 216, 6-(4-(difluoromethoxy)phenyl)-2-((3-methyl-1,2,4-oxadiazol-5-yl)methyl)pyridazin-3(2H)-one]	10 to 100
O=c1ccc(-c2ccc(OC(F)F)cc2)nn1Cc1nnc(C2CC2)s1 [Compound 217, 2-((5-cyclopropyl-1,3,4-thiadiazol-2-yl)methyl)-6-(4-(difluoromethoxy)phenyl)-pyridazin-3(2H)-one]	10 to 100
Cc1coc(Cn2nc(-c3ccc(OC(F)F)cc3)ccc2=O)n1 [Compound 218, 6-(4-(difluoromethoxy)phenyl)-2-((4-methyloxazol-2-yl)methyl)pyridazin-3(2H)-one]	10 to 100
O=c1ccc(-c2ccc(OC(F)F)cc2)nn1Cc1nnc(C2CC2)o1 [Compound 219]	10 to 100
O=c1ccc(-c2ccc(OC(F)F)cc2)nn1Cc1cncnc1 [Compound 220, 6-(4-(difluoromethoxy)phenyl)-2-(pyrimidin-5-ylmethyl)pyridazin-3(2H)-one]	10 to 100
Cc1nnc(Cn2nc(-c3ccc(OC(F)F)cc3)ccc2=O)o1 [Compound 222, 6-(4-(difluoromethoxy)phenyl)-2-((5-methyl-1,3,4-oxadiazol-2-yl)methyl)pyridazin-3(2H)-one]	10 to 100
Cc1nnc(Cn2nc(-c3ccc(OC(F)F)cc3)ccc2=O)s1 [Compound 223, 6-(4-(difluoromethoxy)phenyl)-2-((5-methyl-1,3,4-thiadiazol-2-yl)methyl)pyridazin-3(2H)-one]	10 to 100
Cc1cnc(Cn2nc(-c3ccc(OC(F)F)cc3)ccc2=O)[nH]1 [Compound 224, 6-(4-(difluoromethoxy)phenyl)-2-((5-methyl-1H-imidazol-2-yl)methyl)pyridazin-3(2H)-one]	> 100
O=c1ccc(-c2ccc(OC(F)F)cc2)nn1Cc1ccncn1 [Compound 225, 6-(4-(difluoromethoxy)phenyl)-2-(pyrimidin-4-ylmethyl)pyridazin-3(2H)-one]	> 100
O=c1ccc(-c2ccc(OC(F)F)cc2)nn1Cc1nccn1CC(F)(F)F [Compound 226, 6-(4-(difluoromethoxy)phenyl)-2-((1-(2,2,2-trifluoroethyl)-1H-imidazol-2-yl)methyl)pyridazin-3(2H)-one]	> 100
Cc1nnc(Cn2nc(-c3ccc(OC(F)F)cc3)ccc2=O)[nH]1 [Compound 227, 6-(4-(difluoromethoxy)phenyl)-2-((5-methyl-4H-1,2,4-triazol-3-yl)methyl)pyridazin-3(2H)-one]	> 100
O=c1ccc(-c2ccc(OC(F)F)cc2)nn1Cc1nnc(C2CC2)[nH]1 [Compound 228, 2-((5-cyclopropyl-4H-1,2,4-triazol-3-yl)methyl)-6-(4-(difluoromethoxy)phenyl)-pyridazin-3(2H)-one]	> 100
O=c1ccc(-c2ccc(OC(F)F)cc2)nn1Cc1nnc(C(F)(F)F)s1 [Compound 229, 6-(4-(difluoromethoxy)phenyl)-2-((5-(trifluoromethyl)-1,3,4-thiadiazol-2-yl)methyl)pyridazin-3(2H)-one]	> 100
O=c1ccc(-c2ccc(OC(F)F)cc2)nn1Cc1nc2ccccc2[nH]1 [Compound 230, 2-((1H-benzo[d]imidazol-2-yl)methyl)-6-(4-(difluoromethoxy)phenyl)-pyridazin-3(2H)-one]	> 100
O=c1ccc(-c2ccc(OC(F)F)cc2)nn1Cc1ncccn1 [Compound 232, 6-(4-(difluoromethoxy)phenyl)-2-(pyrimidin-2-ylmethyl)pyridazin-3(2H)-one]	> 100
O=c1[nH]nc(Cn2nc(-c3ccc(OC(F)F)cc3)ccc2=O)o1 [Compound 234, 5-((3-(4-(difluoromethoxy)phenyl)-6-oxopyridazin-1(6H)-yl)methyl)-1,3,4-oxadiazol-2(3H)-one]	> 100

Second part, the molecule after the results:

IC50 [µM]	Structure (SMILES)
> 100	Nc1nnc(Cn2nc(-c3ccc(OC(F)F)cc3)ccc2=O)o1 [Compound 235, 2-((5-amino-1,3,4-oxadiazol-2-yl)methyl)-6-(4-(difluoromethoxy)phenyl)-pyridazin-3(2H)-one]
> 100	O=c1ccc(-c2ccc(OC(F)F)cc2)nn1Cc1nnc(C(F)(F)F)[nH]1 [Compound 236, 6-(4-(difluoromethoxy)phenyl)-2-((5-(trifluoromethyl)-4H-1,2,4-triazol-3-yl)methyl)pyridazin-3(2H)-one]
10 to 100	O=c1ccc(-c2ccc(OC(F)F)cc2)nn1Cc1nc(-c2ccccc2)co1 [Compound 237, 6-(4-(difluoromethoxy)phenyl)-2-((4-phenyloxazol-2-yl)methyl)pyridazin-3(2H)-one]
< 10	O=c1ccc(-c2ccc(OCC(F)(F)F)cc2)nn1Cc1cncc(F)c1 [Compound 238, 2-((5-fluoropyridin-3-yl)methyl)-6-(4-(2,2,2-trifluoroethoxy)phenyl) pyridazin-3(2H)-one]
> 100	Cc1noc(Cn2nc(-c3ccc4c(c3)OCCCO4)ccc2=O)n1 [Compound 301, 6-(3,4-dihydro-2H-benzo[b][1,4]dioxepin-7-yl)-2-((3-methyl-1,2,4-oxadiazol-5-yl)methyl)pyridazin-3(2H)-one]
10 to 100	COC(=O)c1ccc(Cn2nc(-c3ccc(SC)cc3)ccc2=O)o1 [Compound 302, methyl 5-((3-(4-(methylthio)phenyl)-6-oxopyridazin-1(6H)-yl)methyl)furan-2-carboxylate]
< 10	CCOc1ccc(-c2ccc(=O)n(Cc3nc(-c4ccccn4)no3)n2)cc1 [Compound 304, 6-(4-ethoxyphenyl)-2-((3-(pyridin-2-yl)-1,2,4-oxadiazol-5-yl)methyl)pyridazin-3(2H)-one]
< 10	COc1ccc(-c2ccc(=O)n(Cc3nc(-c4ccc(OC)cc4)no3)n2)cc1 [Compound 305, 6-(4-methoxyphenyl)-2-((3-(4-methoxyphenyl)-1,2,4-oxadiazol-5 yl)methyl)pyridazin-3(2H)-one]
10 to 100	COc1ccc(-c2ccc(=O)n(Cc3nc(-c4ccccn4)no3)n2)cc1 [Compound 306, 6-(4-methoxyphenyl)-2-((3-(pyridin-2-yl)-1,2,4-oxadiazol-5-yl)methyl)pyridazin-3(2H)-one]
10 to 100	COc1ccc(-c2ccc(=O)n(Cc3cc(=O)n4ccccc4n3)n2)cc1 [Compound 307, 2-((3-(4-methoxyphenyl)-6-oxopyridazin-1(6H)-yl)methyl)-4H-pyrido[1.2-a]pyrimidin-4-one]
< 10	CCOc1ccc(-c2ccc(=O)n(Cc3nc(-c4cccs4)no3)n2)cc1 [Compound 308, 6-(4-ethoxyphenyl)-2-((3-(thiophen-2-yl)-1,2,4-oxadiazol-5-yl)methyl)pyridazin-3(2H)-one]
< 10	COc1ccc(-c2ccc(=O)n(Cc3nc(-c4ccccc4)no3)n2)cc1 [Compound 309, 6-(4-methoxyphenyl)-2-((3-phenyl-1,2,4-oxadiazol-5-yl)methyl)pyridazin-3(2H)-one]
< 10	COc1ccc(-c2ccc(=O)n(Cc3nc(-c4ccc(OC)cc4)no3)n2)cc1 [Compound 310, 6-(4-methoxyphenyl)-2-((3-(4-methoxyphenyl)-1,2,4-oxadiazol-5-yl)methyl)pyridazin-3(2H)-one]
10 to 100	Cc1ccc(-c2ccc(=O)n(Cc3cc(=O)n4ccccc4n3)n2)cc1 [Compound 311, 2-((6-oxo-3-(p-tolyl)pyridazin-1(6H)-yl)methyl)-4H-pyrido[1,2-a]pyrimidin-4-one]
< 10	Cc1ccc(-c2ccc(=O)n(Cc3nc(-c4ccccc4C)no3)n2)cc1 [Compound 312, 6-(p-tolyl)-2-((3-(o-tolyl)-1,2,4-oxadiaxol-5-yl)methyl)pyridazin-3(2H)-one]
10 to 100	Cc1ccc(-c2noc(Cn3nc(-c4ccc(Cl)cc4)ccc3=O)n2)cc1 [Compound 313, 6-(4-chlorophenyl)-2-((3-(p-tolyl)-1,2,4-oxadiazol-5-yl)methyl)pyridazin-3(2H)-one]
> 100	Cc1ccc(-c2ccc(=O)n(Cc3nc(-c4cccc(Cl)c4)no3)n2)cc1 [Compound 314, 2-((3-(3-chlorophenyl)-1,2,4-oxadiazol-5-yl)methyl)-6-(p-tolyl)pyridazin-3(2H)-one]
< 10	COc1ccc(-c2ccc(=O)n(Cc3nc(-c4ccc(OC)cc4)no3)n2)cc1 [Compound 315, 6-(4-methoxyphenyl)-2-((3-(4-methoxyphenyl)-1,2,4-oxadiazol-5-yl)methyl)pyridazin-3(2H)-one]
> 100	Cc1nc(Cn2nc(-c3ccc(Cl)cc3)ccc2=O)no1 [Compound 350, 6-(4-chlorophenyl)-2-((5-methyl-1,2,4-oxadiazol-3-yl)methyl)pyridazin-3(2H)-one]
10 to 100	Cc1ncc(-c2ccc(=O)n(Cc3cncc(F)c3)n2)cn1 [Compound 351]
< 10	C/C=C\c1ncc(-c2ccc(=O)n(Cc3cncc(F)c3)n2)cn1 [Compound 352, (Z)-2-((5-fluoropyridin-3-yl)methyl)-6-(2-(prop-1-en-1-yl)pyrimidin-5-yl)pyridazin-3(2H)-one]

— US11873290B2, “Pyridazinone compounds and uses thereof” (Edgewise Therapeutics, Inc., priority 2018, dated 2024)
